From ChEMBL document CHEMBL4699523, “Predicting the Human Hepatic Clearance of Acidic and Zwitterionic Drugs” (J Med Chem, 2020)

Assays:
[1] = physchem
[2] = in vitro; details: human, plasma
Description: Fraction unbound in human plasma

[3] = in vitro; details: rat, plasma
Description: Fraction unbound in rat plasma

[4] = in vitro; details: dog, MDCK, pH 7.4
Description: Apparent permeability in dog MDCKII-LE cells at pH 7.4

[5] = physchem; details: buffer, pH 7.4
[6] = human, in vivo, iv
Description: Hepatic clearance in human administered through iv dosing

[7] = cynomolgus monkey, in vivo, iv, 1 mg/kg
[8] = in vitro; details: cynomolgus monkey, plasma
Description: Fraction unbound in cynomolgus monkey plasma

[9] = rat, in vivo, iv, 1 mg/kg
[10] = in vitro; details: human, cryopreserved hepatocytes
[11] = in vivo; details: Wistar Hannover, rat, blood and plasma, iv
Description: Ratio of drug level in Wistar Hannover rat blood to plasma administered through iv dosing by LC-MS/MS analysis

[12] = in vivo; details: cynomolgus monkey, blood and plasma, iv
Description: Ratio of drug level in cynomolgus monkey blood to plasma administered through iv dosing by LC-MS/MS analysis

[13] = clinical; details: human, blood and plasma, iv
Description: Ratio of drug level in human blood to plasma administered through iv dosing by LC-MS/MS analysis

[14] = physchem; remark: listed apart in the source

CC(C)n1c(/C=C/C(O)CC(O)CC(=O)O)c(-c2ccc(F)cc2)c2ccccc21 (stereo unspecified) [FLUVASTATIN]
pKa at 0.3 h [1]: 4.4
fraction unbound [2]: 0.00922
fraction unbound [3]: 0.009
Papp [4]: 11 ×10⁻⁶ cm/s
logD [5]: 1.4

COc1ccc(Cl)cc1C(=O)NCCc1ccc(S(=O)(=O)NC(=O)NC2CCCCC2)cc1 [GLYBURIDE]
CLH [6]: 1.2 mL/min/kg
CLH [7]: 5.8 mL/min/kg
fraction unbound [2]: 0.00217
fraction unbound [3]: 0.0013
fraction unbound [8]: 0.00179
CLH [9]: 1.2 mL/min/kg
CLint scaled at 2 h, 1 µM [10]: 69 mL/min/kg
Papp [4]: 14 ×10⁻⁶ cm/s

Cc1nn(-c2cnc(OCC(C)C)c(Cl)c2)c2ccc(C(=O)NS(C)(=O)=O)cc12 [PF-05241328]
CLH [6]: 5.7 mL/min/kg
pKa at 0.3 h [1]: 3.6
CLH [7]: 30.1 mL/min/kg
fraction unbound [2]: 0.002
fraction unbound [3]: 0.001
blood plasma ratio [11]: 0.55
fraction unbound [8]: 0.002
CLH [9]: 3.1 mL/min/kg
blood plasma ratio [12]: 0.56
CLint scaled at 2 h, 1 µM [10]: 37 mL/min/kg
blood plasma ratio [13]: 0.56
Papp [4]: 3.9 ×10⁻⁶ cm/s
logD [5]: 2

O=S(=O)(Nc1nncs1)c1cc(Cl)c(Oc2ccc(C(F)(F)F)cc2-c2ccnnc2)cc1F [PF-05186462]
CLH [6]: 1.3 mL/min/kg
pKa at 0.3 h [1]: 4.1
Papp [4]: 0.8 ×10⁻⁶ cm/s
logD [5]: 0.8

CCCCCN(CCCOC)C(=O)[C@@H](CCC(=O)O)NC(=O)c1ccc(Cl)c(Cl)c1 [DEXLOXIGLUMIDE]
CLH [6]: 3.3 mL/min/kg
pKa at 0.3 h [1]: 4.2
CLH [7]: 1.4 mL/min/kg
fraction unbound [2]: 0.00969
fraction unbound [8]: 0.00771
blood plasma ratio [12]: 0.596
CLint scaled at 2 h, 1 µM [10]: 26 mL/min/kg
blood plasma ratio [13]: 0.563
Papp [4]: 4.6 ×10⁻⁶ cm/s
logD [5]: 1.5

O=C(O)c1ccc(NC(=O)[C@H](CC2CCCC2)n2cnc(C(F)(F)F)c2)nc1 [PF-04991532]
logD [5]: 0.7

Nc1[nH]ncc1-c1cc(Cl)ccc1Oc1cc(F)c(S(=O)(=O)Nc2cscn2)cc1Cl [PF-05089771]
CLH [6]: 0.59 mL/min/kg
pKa at 0.3 h [1]: 6
CLH [7]: 1.8 mL/min/kg
fraction unbound [3]: 0.0133
fraction unbound [8]: 0.00164
CLH [9]: 6 mL/min/kg
CLint scaled at 2 h, 1 µM [10]: 40 mL/min/kg
logD [5]: 2.3
pKa at 0.3 h [14]: 2.9

O=C(c1ccccc1)c1ccc2n1CCC2C(=O)O (stereo unspecified) [KETOROLAC]
CLH [6]: 0.19 mL/min/kg
CLH [7]: 1.2 mL/min/kg
fraction unbound [2]: 0.0264
fraction unbound [3]: 0.0216
blood plasma ratio [11]: 0.55
fraction unbound [8]: 0.0148
CLH [9]: 1.3 mL/min/kg
blood plasma ratio [12]: 0.687
CLint scaled at 2 h, 1 µM [10]: 3.1 mL/min/kg
blood plasma ratio [13]: 0.792
Papp [4]: 15 ×10⁻⁶ cm/s
logD [5]: -0.6

COc1ccccc1Oc1c(NS(=O)(=O)c2ccc(C(C)(C)C)cc2)nc(-c2ncccn2)nc1OCCO [BOSENTAN]
CLH [6]: 2.2 mL/min/kg
pKa at 0.3 h [1]: 4.9
CLH [7]: 33.1 mL/min/kg
fraction unbound [2]: 0.0285
fraction unbound [3]: 0.0121
blood plasma ratio [11]: 0.69
fraction unbound [8]: 0.0422
CLH [9]: 15.9 mL/min/kg
blood plasma ratio [12]: 1.19
CLint scaled at 2 h, 1 µM [10]: 16 mL/min/kg
blood plasma ratio [13]: 0.668
Papp [4]: 7.4 ×10⁻⁶ cm/s
logD [5]: 1.2

CC(C)Cc1ccc(C(C)C(=O)O)cc1 (stereo unspecified) [IBUPROFEN]
Papp [4]: 33 ×10⁻⁶ cm/s
logD [5]: 1.1

CCN1CC(n2nccc2-c2cc(Cl)ccc2Oc2ccc(S(=O)(=O)Nc3cscn3)cc2C#N)C1 [PF-05150122]
CLH [6]: 3.2 mL/min/kg
CLH [9]: 271 mL/min/kg
logD [5]: 1.1

CC[C@H](C)C(=O)O[C@H]1C[C@H](O)C=C2C=C[C@H](C)[C@H](CC[C@@H](O)C[C@@H](O)CC(=O)O)[C@H]21 [PRAVASTATIN]
CLH [6]: 7.3 mL/min/kg
pKa at 0.3 h [1]: 4.3
CLH [7]: 34.6 mL/min/kg
fraction unbound [2]: 0.634
fraction unbound [3]: 0.537
blood plasma ratio [11]: 0.595
fraction unbound [8]: 0.649
CLH [9]: 19.3 mL/min/kg
blood plasma ratio [12]: 0.651
CLint scaled at 2 h, 1 µM [10]: 0.77 mL/min/kg
blood plasma ratio [13]: 0.55
Papp [4]: 0.46 ×10⁻⁶ cm/s
logD [5]: -0.4

CCCCc1nc(C)c(CC(=S)N(C)C)c(=O)n1Cc1ccc(-c2ccccc2-c2nnn[nH]2)cc1
CLH [6]: 9.6 mL/min/kg
pKa at 0.3 h [1]: 4.3
CLH [7]: 23 mL/min/kg
fraction unbound [2]: 0.0288
fraction unbound [8]: 0.0177
blood plasma ratio [12]: 0.588
CLint scaled at 2 h, 1 µM [10]: 17 mL/min/kg
blood plasma ratio [13]: 0.726
Papp [4]: 1.2 ×10⁻⁶ cm/s
logD [5]: 0.9
pKa at 0.3 h [14]: 2.7

CCCCC(=O)N(Cc1ccc(-c2ccccc2-c2nnn[nH]2)cc1)[C@H](C(=O)O)C(C)C
CLH [6]: 0.35 mL/min/kg
CLH [7]: 8.4 mL/min/kg
fraction unbound [2]: 0.00415
fraction unbound [3]: 0.00302
fraction unbound [8]: 0.0145
CLH [9]: 5.1 mL/min/kg
CLint scaled at 2 h, 1 µM [10]: 1.6 mL/min/kg
Papp [4]: 0.32 ×10⁻⁶ cm/s

CCOc1cc(CC(=O)N[C@@H](CC(C)C)c2ccccc2N2CCCCC2)ccc1C(=O)O [REPAGLINIDE]
CLH [6]: 7.4 mL/min/kg
pKa at 0.3 h [1]: 4.4
CLH [7]: 10.7 mL/min/kg
fraction unbound [2]: 0.0124
fraction unbound [8]: 0.0124
blood plasma ratio [12]: 0.679
CLint scaled at 2 h, 1 µM [10]: 98 mL/min/kg
blood plasma ratio [13]: 0.851
Papp [4]: 19 ×10⁻⁶ cm/s
logD [5]: 2.3
pKa at 0.3 h [14]: 6

CCO[C@@H](Cc1ccc(OCCc2ccc(OS(C)(=O)=O)cc2)cc1)C(=O)O [TESAGLITAZAR]
CLH [6]: 0.03 mL/min/kg
pKa at 0.3 h [1]: 3.4
CLH [7]: 0.135 mL/min/kg
fraction unbound [2]: 0.00273
fraction unbound [8]: 0.00151
blood plasma ratio [12]: 0.687
CLint scaled at 2 h, 1 µM [10]: 4.7 mL/min/kg
blood plasma ratio [13]: 0.699
logD [5]: -0.1

CN(C)C(=O)CCS[C@H](SCCC(=O)O)c1cccc(/C=C/c2ccc3ccc(Cl)cc3n2)c1
CLH [6]: 0.91 mL/min/kg
pKa at 0.3 h [1]: 4.4
CLH [7]: 10.1 mL/min/kg
fraction unbound [2]: 0.00142
fraction unbound [8]: 0.00116
blood plasma ratio [12]: 0.581
CLint scaled at 2 h, 1 µM [10]: 61 mL/min/kg
blood plasma ratio [13]: 0.655
Papp [4]: 8.5 ×10⁻⁶ cm/s
logD [5]: 1.5
pKa at 0.3 h [14]: 3.8

CC(C)(C)OC(=O)N[C@H]1CCCCC/C=C\[C@@H]2C[C@@]2(C(=O)NS(=O)(=O)C2CC2)NC(=O)[C@@H]2C[C@@H](OC(=O)N3Cc4cccc(F)c4C3)CN2C1=O [DANOPREVIR]
CLH [6]: 10.8 mL/min/kg
CLH [7]: 26.3 mL/min/kg
fraction unbound [2]: 0.072
fraction unbound [8]: 0.085
blood plasma ratio [12]: 0.73
blood plasma ratio [13]: 0.73
Papp [4]: 2.5 ×10⁻⁶ cm/s

CC(C)(O)c1ccccc1CC[C@@H](SCC1(CC(=O)O)CC1)c1cccc(/C=C/c2ccc3ccc(Cl)cc3n2)c1 [MONTELUKAST]
CLH [6]: 0.57 mL/min/kg
CLH [7]: 1.3 mL/min/kg
fraction unbound [2]: 0.004
fraction unbound [8]: 0.004
Papp [4]: 6 ×10⁻⁶ cm/s
pKa at 0.3 h [14]: 2.3

CCCCC1=NC2(CCCC2)C(=O)N1Cc1ccc(-c2ccccc2-c2nnn[nH]2)cc1 [IRBESARTAN]
CLH [6]: 2.1 mL/min/kg
pKa at 0.3 h [1]: 3.5
CLH [7]: 12.1 mL/min/kg
fraction unbound [2]: 0.0155
fraction unbound [8]: 0.0126
blood plasma ratio [12]: 0.55
blood plasma ratio [13]: 0.603
Papp [4]: 8.6 ×10⁻⁶ cm/s
logD [5]: 1.3
pKa at 0.3 h [14]: 4.6

COc1ccc2c(c1)C(=O)N(CCc1ccc(S(=O)(=O)NC(=O)NC3CCCCC3)cc1)C(=O)C2(C)C [GLIQUIDONE]
CLH [6]: 0.96 mL/min/kg
CLH [7]: 3.5 mL/min/kg
fraction unbound [2]: 0.0035
fraction unbound [8]: 0.0015
blood plasma ratio [12]: 0.62
blood plasma ratio [13]: 0.62
Papp [4]: 5.7 ×10⁻⁶ cm/s

O=C(O)c1cccc(Cc2cc(Cl)ccc2OCc2ccc(Cl)cc2F)n1
CLH [6]: 2 mL/min/kg
pKa at 0.3 h [1]: 5.3
CLH [7]: 19.5 mL/min/kg
fraction unbound [2]: 0.0024
fraction unbound [8]: 0.00288
blood plasma ratio [12]: 0.561
CLint scaled at 2 h, 1 µM [10]: 180 mL/min/kg
blood plasma ratio [13]: 0.654
Papp [4]: 12 ×10⁻⁶ cm/s

O=C(O)Cc1ccccc1Nc1c(Cl)cccc1Cl [DICLOFENAC]
CLH [6]: 4.1 mL/min/kg
CLH [7]: 10.8 mL/min/kg
fraction unbound [2]: 0.00376
fraction unbound [3]: 0.00598
fraction unbound [8]: 0.0047
CLH [9]: 17.5 mL/min/kg
CLint scaled at 2 h, 1 µM [10]: 176 mL/min/kg

CC(C)(C)NC(=O)[C@H]1CC[C@H]2[C@@H]3CC=C4C=C(C(=O)O)CC[C@]4(C)[C@H]3CC[C@]12C [EPRISTERIDE]
CLH [6]: 0.33 mL/min/kg
pKa at 0.3 h [1]: 4.6
CLH [7]: 1.5 mL/min/kg
fraction unbound [2]: 0.0138
fraction unbound [8]: 0.00917
blood plasma ratio [12]: 0.55
CLint scaled at 2 h, 1 µM [10]: 23 mL/min/kg
blood plasma ratio [13]: 0.55
Papp [4]: 20 ×10⁻⁶ cm/s
logD [5]: 3.4

COCc1c(C(C)C)nc(C(C)C)c(/C=C/[C@@H](O)C[C@@H](O)CC(=O)O)c1-c1ccc(F)cc1 [CERIVASTATIN]
CLH [6]: 2.7 mL/min/kg
pKa at 0.3 h [1]: 4.7
CLH [7]: 19.7 mL/min/kg
fraction unbound [2]: 0.0176
fraction unbound [3]: 0.0179
fraction unbound [8]: 0.0153
CLH [9]: 8.7 mL/min/kg
CLint scaled at 2 h, 1 µM [10]: 43 mL/min/kg
pKa at 0.3 h [14]: 5.6

CC(C)c1nc(N(C)S(C)(=O)=O)nc(-c2ccc(F)cc2)c1/C=C/[C@@H](O)C[C@@H](O)CC(=O)O [ROSUVASTATIN]
CLH [6]: 6.8 mL/min/kg
pKa at 0.3 h [1]: 4.3
CLH [7]: 27.9 mL/min/kg
fraction unbound [2]: 0.158
fraction unbound [3]: 0.0421
blood plasma ratio [11]: 0.588
fraction unbound [8]: 0.155
CLH [9]: 28.4 mL/min/kg
blood plasma ratio [12]: 0.735
CLint scaled at 2 h, 1 µM [10]: 0.86 mL/min/kg
blood plasma ratio [13]: 0.569
Papp [4]: 0.89 ×10⁻⁶ cm/s
logD [5]: 0.1
